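1) Cells in 96-well plates. 2) Compound, 48 h, 5 concentrations. 3) Linear interpolation between surrounding doses. 4) Unreached endpoint = highest concentration. At the GI50, growth is halved.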 Active and inactive are the calls of the source. Cut-off read from the data, not from the text of the source: active = GI50 up to about 1.1 µM and inactive = higher. Where a SMILES comes first, the peptide text is derived from it. [ ]: non-standard residue; d: D form. pGlu = O=C1CC[CH](C(=O)O)N1 A value given as a limit tells only on which side of the number the result lay.

We go through eleven compounds from ChEMBL document CHEMBL1201862, “PubChem BioAssay data set” (2004).

Assay in all cases: DTP human tumour cell line panel, 48 h
For test [1], the system named is SK-MEL-28.
The test system of test [2] is NCI-H226.
For test [3], the system named is UACC-62.
For test [4], the system named is OVCAR-3.
Test [5] concerns HCT-116.
For test [6], the system named is HOP-92.
Test [7] concerns HCT-15.
Test [8] relates to KM12.
Test [9] relates to SF-539.
For test [10], the system named is BT-549.
In test [11] the test system is DU-145.
For test [12], the system named is EKVX.
Test [13] has as its system MDA-N.
In test [14] the test system is U-251.
Test [15] concerns TK-10.
For test [16], the system named is SK-MEL-2.
For test [17], the system named is UACC-257.
Test [18] concerns COLO 205.
Test [19] has as its system LOX IMVI.
The test system of test [20] is RXF 393.

For `COc1cc(C(=O)O[C@@H]2[C@@H](OC(=O)c3cc(OC)c(OC)c(OC)c3)[C@@H](OC)O[C@@H]3CO[C@@H](c4ccccc4)O[C@@H]23)cc(OC)c1OC`, the GI50 in [1], in test [2], in test [3], in test [4], in [5] and in test [6] was > 100 µM (inactive) each time. Moreover, the GI50 (as a rule, the concentration at which growth is held to half of that of the control) in test [7] was greater than 100 µM; in test [8], > 100 µM (inactive); in [9] it was > 100 µM (inactive); in test [10] it was 50.4 µM (inactive); in test [11], > 100 µM (inactive); in test [12], > 100 µM (inactive). Besides, the GI50 in [13], in test [14], in test [15], in [16], in test [17] and in [18] was > 100 µM (inactive) in each case. The GI50 in test [19] was > 100 µM (inactive).
Consider `Brc1ccc(-c2nc(-c3ccc(Br)cc3)n(-c3ccccc3)n2)cc1`, for which the GI50 in [1] is > 100 µM (inactive); in test [2], > 100 µM (inactive); in test [3], > 100 µM (inactive); in test [4], > 100 µM (inactive); in test [5], 38 µM (inactive); in test [6], > 100 µM (inactive). The GI50 in test [7] is greater than 100 µM; in test [8] it was 49.5 µM (inactive); in [9] it was > 100 µM (inactive); in [10], > 100 µM (inactive); in test [11], > 100 µM (inactive); in test [12], 85.5 µM (inactive). Moreover, the GI50 in test [13] was > 100 µM (inactive); in test [14], > 100 µM (inactive); in test [15], > 100 µM (inactive); in test [16], > 100 µM (inactive); in test [17] it was 81.1 µM (inactive); in [18], 27.2 µM (inactive). The GI50 in test [19] is > 100 µM (inactive).
As to `Cc1ccc(S(=O)(=O)N2CCC[C@@H]2C(=O)O[C@@H]2CCC3CC=CC32)cc1` (some centres undefined), the GI50 in [1] is 47.9 µM (inactive); in [2] it was 19.9 µM (inactive); in [3], 27.9 µM (inactive); in [4] it was 12.1 µM (inactive); in test [5] it was 30.4 µM (inactive); in test [6], 15.3 µM (inactive). The GI50 in test [7] is 32.7 µM; in test [8] it was 28.3 µM (inactive); in test [9], 44.5 µM (inactive); in test [10], 18.9 µM (inactive); in test [20], 20 µM (inactive); in test [11], 45.6 µM (inactive). In addition, the GI50 is 41.6 µM (inactive) in [12]; 29.2 µM (inactive) in test [13]; 34.3 µM (inactive) in [14]; 42.5 µM (inactive) in test [15]; 22.2 µM (inactive) in [17]; 16.6 µM (inactive) in test [18]. For the same compound, the GI50 in test [19] is 16.1 µM (inactive).
As to `CCCCCC(=O)CCCCCCCC(O)CC(=O)OCC` (centres undefined), the GI50 in test [1] is > 100 µM (inactive); in test [2] it was > 100 µM (inactive); in test [4] it was > 100 µM (inactive); in [5], > 100 µM (inactive); in test [6] it was 49.1 µM (inactive); in test [7], greater than 100 µM. Besides, the GI50 was > 100 µM (inactive) in [8]; > 100 µM (inactive) in test [9]; 37.8 µM (inactive) in test [10]; > 100 µM (inactive) in test [11]; > 100 µM (inactive) in test [13]; 64.3 µM (inactive) in [14]. Besides, the GI50 in test [15], in test [17] and in test [19] was > 100 µM (inactive) in each case.
With `COC(=O)C1CCC(=O)N1C(c1ccccc1)c1cc(OC)c(OC)c(OC)c1` (centres undefined), the GI50 in test [1] is 99.8 µM (inactive); in [2], > 100 µM (inactive); in test [3] it was 60.5 µM (inactive); in [4], 51.2 µM (inactive); in test [5], 50 µM (inactive); in test [6] it was 99.3 µM (inactive). Besides, the GI50 in [7] is 42.6 µM; in [8], 45.8 µM (inactive); in test [9] it was 69.5 µM (inactive); in [10], 92.7 µM (inactive); in test [20] it was > 100 µM (inactive); in test [11] it was > 100 µM (inactive). Moreover, the GI50 was 91 µM (inactive) in test [12]; 21.8 µM (inactive) in [13]; 80.4 µM (inactive) in [14]; > 100 µM (inactive) in [15]; > 100 µM (inactive) in test [17]; 45.5 µM (inactive) in [18]. In [19], the GI50 was 56.2 µM (inactive).
Turning to `O=C1C=C(N2CCN(c3ncccn3)CC2)C(=O)c2c(O)ccc(O)c21`, the GI50 was > 100 µM (inactive) in test [1]; > 100 µM (inactive) in [2]; 16.2 µM (inactive) in test [3]; > 100 µM (inactive) in test [4]; 73.1 µM (inactive) in test [5]; > 100 µM (inactive) in test [6]. Further, the GI50 in [7] was greater than 100 µM; in [8], > 100 µM (inactive); in test [9] it was 21.6 µM (inactive); in test [10], > 100 µM (inactive); in test [11], > 100 µM (inactive); in test [12], > 100 µM (inactive). Further, the GI50 in test [13] is 14.5 µM (inactive); in test [14], > 100 µM (inactive); in test [15], > 100 µM (inactive); in test [17], > 100 µM (inactive); in [18] it was > 100 µM (inactive); in test [19] it was > 100 µM (inactive).
Regarding `COc1cc(OC)cc(N(C)Cc2cnc3nc(N)nc(N)c3c2C)c1`, the GI50 is > 41.1 µM (inactive) in test [2]; 0.719 µM (active) in [3]; 9.66 µM (inactive) in test [4]; 0.358 µM (active) in test [5]; 13.3 µM (inactive) in test [6]; 1.27 µM in test [7]. The GI50 in [8] is 3.85 µM (inactive); in test [9] it was 0.385 µM (active); in [10], > 25.7 µM (inactive); in test [11], 4.71 µM (inactive); in test [12], > 47.3 µM (inactive); in [13], 0.631 µM (active). The GI50 in test [14] is 0.543 µM (active); in test [16] it was > 51.5 µM (inactive); in [17], 1.56 µM (inactive); in [18], 12.6 µM (inactive); in test [19] it was 1.16 µM (inactive).
With `CC(NC(=O)C1CCC(=O)N1)C(=O)N1CCCC1C(N)=O` (stereo not drawn) ([pGlu]-Ala-Pro-NH2; configuration not given here), the GI50 in [1], in [2], in [3], in [4], in test [5] and in test [6] was > 100 µM (inactive) each time. Further, the concentration for 50% growth inhibition (GI50) in test [7] is greater than 100 µM; in test [8] it was > 100 µM (inactive); in [10], > 100 µM (inactive); in test [20], > 100 µM (inactive); in test [11] it was > 100 µM (inactive); in test [12] it was > 100 µM (inactive). Also, the GI50 in [13], in test [14], in [15], in test [18] and in [19] was > 100 µM (inactive) in each case.
As to `CN1CCN(/C(N)=C(\C#N)C(=O)Nc2ccccc2)CC1`, the GI50 in test [1], in test [2], in [3], in test [4], in test [5] and in test [6] was > 100 µM (inactive) throughout. Further, the GI50 in [7] is greater than 100 µM; in [8], > 100 µM (inactive); in test [9] it was > 100 µM (inactive); in [10], > 100 µM (inactive); in test [11] it was > 100 µM (inactive); in test [12] it was > 100 µM (inactive). The GI50 in [13], in test [14], in test [16], in test [17], in test [18] and in [19] was > 100 µM (inactive) each time.
In the case of `CC(Cn1c(=O)oc2ccccc21)N(C)C` (centres undefined), the GI50 in [1] was > 100 µM (inactive); in test [2] it was > 100 µM (inactive); in test [3], > 100 µM (inactive); in [4] it was > 100 µM (inactive); in test [5] it was > 100 µM (inactive); in test [7], greater than 100 µM. For the same compound, the GI50 in test [8], in [9], in [10], in test [20], in test [11] and in test [12] was > 100 µM (inactive) in each case. Besides, the GI50 in test [13], in [14], in test [15], in [16], in [17] and in test [18] was > 100 µM (inactive) in each case. Moreover, the GI50 in [19] is > 100 µM (inactive).
`COc1c(OC)c(OC)c(C(=O)/C=C/c2ccccc2)c(OC)c1OC`: the GI50 in [1] is 13.4 µM (inactive); in test [2] it was 8.05 µM (inactive); in test [3], 6.87 µM (inactive); in test [4], 9.29 µM (inactive); in test [5] it was 6.11 µM (inactive); in test [6], 3.13 µM (inactive). In addition, the GI50 in test [7] is 10.6 µM; in [8], 4.1 µM (inactive); in test [9], 9.02 µM (inactive); in test [10] it was 3.79 µM (inactive); in [11], 3.54 µM (inactive); in test [12], 13.9 µM (inactive). For the same compound, the GI50 is 5.51 µM (inactive) in test [13]; 7.46 µM (inactive) in test [14]; 12.8 µM (inactive) in test [15]; 12.6 µM (inactive) in test [16]; 14.3 µM (inactive) in [17]; 14.2 µM (inactive) in test [18]. Also, in test [19], the GI50 is 10 µM (inactive).
